Experimental data published in patent publication US9242993B2, “Morpholino substituted bicyclic pyrimidine urea or carbamate derivatives as mTOR inhibitors” (CELLZOME LIMITED, priority 2011, dated 2016).

Columns and labels:
mTOR = mTOR (Homo sapiens, UniProt P42345); assay: biochemical
[1] = test system: S6RP serine-240/244 phosphorylation; assay: In vitro phospho-S6 cellular assay; assay type: cell-based; details: Homo sapiens; HEK293T/17 cells, 2 hours; read-out: pS6 inhibition value (IC50), activity level
Description: Activation of mTOR signaling results in phosphorylation of several downstream targets. In cells, mTOR exists in two different protein complexes. The mTOR Complex-1 (mTORC1) phosphorylates and activates S6 Kinase 1 (S6K1) and S6 Kinase 2 (S6K2) (also known as p70S6K) which then phosphorylate S6 Ribosomal Protein (S6RP) (also known as RPS6)3. S6RP is phosphorylated on serine 235, serine 236, serine 240 and serine 244 by both pS6K1 and pS6K2. The mTOR Complex-2 (mTORC2) phosphorylates AKT on serine 473 which activates the AKT signaling pathway.
The assay measures a test compound's inhibition of S6RP serine-240/244 phosphorylation and inhibition of Akt serine-473 phosphorylation in human embryonic kidney derived HEK293T/17 cells (ATCC CRL-11268).
The HEK293T/17 cell line is maintained in DMEM media (Invitrogen catalogue number 41965-039) supplemented with 10% FCS at 37° C. in a 5% CO2 humidified incubator.
Cells are seeded in 96-well plates at 40,000 cells/well (pS6RP S240/244 assay) or 80,000 cells/well (pAkt S473 assay) in 90 μl growth media (DMEM, 2% FCS). Plates are incubated for 1 hour in a humidified incubator to allow the cells to adhere. Cells are treated with 8 concentrations of test compounds or DMSO alone for controls (final DMSO concentration 0.1%) and incubated at 37° C. for 2 hours. Then 20 μl of 5× concentrated lysis buffer (750 mM NaCl, 100 mM Tris pH7.4, 5 mM ADTA, 5 mM EGTA, 5% Triton X-100) is added, plates are sealed and incubated for 15 minutes at 4° C. with gentle shaking. After cell lysis, 25 μl cell lysate is transferred to a MesoScale plate coated with an antibody to pS6RP Ser240/244 (MesoScale Discovery K150DGD-3) or an antibody to pAkt Ser 473 (MesoScale Discovery K151DGD-3). Plates have been blocked before by incubation with 150 μl MesoScale Discovery Blocking Solution-A for 1 hour at room temperature followed by washing with 150 μl 1× Tris wash buffer per well. After the transfer of the cell lysate to the MSD plate, the pS6RP (or pAkt) protein is captured on the coated antibody by incubation at room temperature for 1 hour with gentle shaking. After the capture step the plate is washed three times with 150 μl of 1× Tris wash buffer per well. Then 25 μl detection antibody conjugated with a Sulfo-Tag is added and incubated for 1 hour at room temperature with gentle shaking. Subsequently the antibody solution is removed and the plate is washed 3 times with 150 μl 1× Tris wash buffer per well and 150 μl Read buffer is added. The plates are analysed on a MSD 2400 Plate Reader (MesoScale Discovery). Data analysis is performed using nonlinear regression for a sigmoidal dose-response with a variable slope.

[2] = target: DNA-dependent protein kinase (DNA-PK) (Homo sapiens, UniProt P78527); assay: biochemical
Sequence of DNA-dependent protein kinase (DNA-PK) (P78527 whole entry): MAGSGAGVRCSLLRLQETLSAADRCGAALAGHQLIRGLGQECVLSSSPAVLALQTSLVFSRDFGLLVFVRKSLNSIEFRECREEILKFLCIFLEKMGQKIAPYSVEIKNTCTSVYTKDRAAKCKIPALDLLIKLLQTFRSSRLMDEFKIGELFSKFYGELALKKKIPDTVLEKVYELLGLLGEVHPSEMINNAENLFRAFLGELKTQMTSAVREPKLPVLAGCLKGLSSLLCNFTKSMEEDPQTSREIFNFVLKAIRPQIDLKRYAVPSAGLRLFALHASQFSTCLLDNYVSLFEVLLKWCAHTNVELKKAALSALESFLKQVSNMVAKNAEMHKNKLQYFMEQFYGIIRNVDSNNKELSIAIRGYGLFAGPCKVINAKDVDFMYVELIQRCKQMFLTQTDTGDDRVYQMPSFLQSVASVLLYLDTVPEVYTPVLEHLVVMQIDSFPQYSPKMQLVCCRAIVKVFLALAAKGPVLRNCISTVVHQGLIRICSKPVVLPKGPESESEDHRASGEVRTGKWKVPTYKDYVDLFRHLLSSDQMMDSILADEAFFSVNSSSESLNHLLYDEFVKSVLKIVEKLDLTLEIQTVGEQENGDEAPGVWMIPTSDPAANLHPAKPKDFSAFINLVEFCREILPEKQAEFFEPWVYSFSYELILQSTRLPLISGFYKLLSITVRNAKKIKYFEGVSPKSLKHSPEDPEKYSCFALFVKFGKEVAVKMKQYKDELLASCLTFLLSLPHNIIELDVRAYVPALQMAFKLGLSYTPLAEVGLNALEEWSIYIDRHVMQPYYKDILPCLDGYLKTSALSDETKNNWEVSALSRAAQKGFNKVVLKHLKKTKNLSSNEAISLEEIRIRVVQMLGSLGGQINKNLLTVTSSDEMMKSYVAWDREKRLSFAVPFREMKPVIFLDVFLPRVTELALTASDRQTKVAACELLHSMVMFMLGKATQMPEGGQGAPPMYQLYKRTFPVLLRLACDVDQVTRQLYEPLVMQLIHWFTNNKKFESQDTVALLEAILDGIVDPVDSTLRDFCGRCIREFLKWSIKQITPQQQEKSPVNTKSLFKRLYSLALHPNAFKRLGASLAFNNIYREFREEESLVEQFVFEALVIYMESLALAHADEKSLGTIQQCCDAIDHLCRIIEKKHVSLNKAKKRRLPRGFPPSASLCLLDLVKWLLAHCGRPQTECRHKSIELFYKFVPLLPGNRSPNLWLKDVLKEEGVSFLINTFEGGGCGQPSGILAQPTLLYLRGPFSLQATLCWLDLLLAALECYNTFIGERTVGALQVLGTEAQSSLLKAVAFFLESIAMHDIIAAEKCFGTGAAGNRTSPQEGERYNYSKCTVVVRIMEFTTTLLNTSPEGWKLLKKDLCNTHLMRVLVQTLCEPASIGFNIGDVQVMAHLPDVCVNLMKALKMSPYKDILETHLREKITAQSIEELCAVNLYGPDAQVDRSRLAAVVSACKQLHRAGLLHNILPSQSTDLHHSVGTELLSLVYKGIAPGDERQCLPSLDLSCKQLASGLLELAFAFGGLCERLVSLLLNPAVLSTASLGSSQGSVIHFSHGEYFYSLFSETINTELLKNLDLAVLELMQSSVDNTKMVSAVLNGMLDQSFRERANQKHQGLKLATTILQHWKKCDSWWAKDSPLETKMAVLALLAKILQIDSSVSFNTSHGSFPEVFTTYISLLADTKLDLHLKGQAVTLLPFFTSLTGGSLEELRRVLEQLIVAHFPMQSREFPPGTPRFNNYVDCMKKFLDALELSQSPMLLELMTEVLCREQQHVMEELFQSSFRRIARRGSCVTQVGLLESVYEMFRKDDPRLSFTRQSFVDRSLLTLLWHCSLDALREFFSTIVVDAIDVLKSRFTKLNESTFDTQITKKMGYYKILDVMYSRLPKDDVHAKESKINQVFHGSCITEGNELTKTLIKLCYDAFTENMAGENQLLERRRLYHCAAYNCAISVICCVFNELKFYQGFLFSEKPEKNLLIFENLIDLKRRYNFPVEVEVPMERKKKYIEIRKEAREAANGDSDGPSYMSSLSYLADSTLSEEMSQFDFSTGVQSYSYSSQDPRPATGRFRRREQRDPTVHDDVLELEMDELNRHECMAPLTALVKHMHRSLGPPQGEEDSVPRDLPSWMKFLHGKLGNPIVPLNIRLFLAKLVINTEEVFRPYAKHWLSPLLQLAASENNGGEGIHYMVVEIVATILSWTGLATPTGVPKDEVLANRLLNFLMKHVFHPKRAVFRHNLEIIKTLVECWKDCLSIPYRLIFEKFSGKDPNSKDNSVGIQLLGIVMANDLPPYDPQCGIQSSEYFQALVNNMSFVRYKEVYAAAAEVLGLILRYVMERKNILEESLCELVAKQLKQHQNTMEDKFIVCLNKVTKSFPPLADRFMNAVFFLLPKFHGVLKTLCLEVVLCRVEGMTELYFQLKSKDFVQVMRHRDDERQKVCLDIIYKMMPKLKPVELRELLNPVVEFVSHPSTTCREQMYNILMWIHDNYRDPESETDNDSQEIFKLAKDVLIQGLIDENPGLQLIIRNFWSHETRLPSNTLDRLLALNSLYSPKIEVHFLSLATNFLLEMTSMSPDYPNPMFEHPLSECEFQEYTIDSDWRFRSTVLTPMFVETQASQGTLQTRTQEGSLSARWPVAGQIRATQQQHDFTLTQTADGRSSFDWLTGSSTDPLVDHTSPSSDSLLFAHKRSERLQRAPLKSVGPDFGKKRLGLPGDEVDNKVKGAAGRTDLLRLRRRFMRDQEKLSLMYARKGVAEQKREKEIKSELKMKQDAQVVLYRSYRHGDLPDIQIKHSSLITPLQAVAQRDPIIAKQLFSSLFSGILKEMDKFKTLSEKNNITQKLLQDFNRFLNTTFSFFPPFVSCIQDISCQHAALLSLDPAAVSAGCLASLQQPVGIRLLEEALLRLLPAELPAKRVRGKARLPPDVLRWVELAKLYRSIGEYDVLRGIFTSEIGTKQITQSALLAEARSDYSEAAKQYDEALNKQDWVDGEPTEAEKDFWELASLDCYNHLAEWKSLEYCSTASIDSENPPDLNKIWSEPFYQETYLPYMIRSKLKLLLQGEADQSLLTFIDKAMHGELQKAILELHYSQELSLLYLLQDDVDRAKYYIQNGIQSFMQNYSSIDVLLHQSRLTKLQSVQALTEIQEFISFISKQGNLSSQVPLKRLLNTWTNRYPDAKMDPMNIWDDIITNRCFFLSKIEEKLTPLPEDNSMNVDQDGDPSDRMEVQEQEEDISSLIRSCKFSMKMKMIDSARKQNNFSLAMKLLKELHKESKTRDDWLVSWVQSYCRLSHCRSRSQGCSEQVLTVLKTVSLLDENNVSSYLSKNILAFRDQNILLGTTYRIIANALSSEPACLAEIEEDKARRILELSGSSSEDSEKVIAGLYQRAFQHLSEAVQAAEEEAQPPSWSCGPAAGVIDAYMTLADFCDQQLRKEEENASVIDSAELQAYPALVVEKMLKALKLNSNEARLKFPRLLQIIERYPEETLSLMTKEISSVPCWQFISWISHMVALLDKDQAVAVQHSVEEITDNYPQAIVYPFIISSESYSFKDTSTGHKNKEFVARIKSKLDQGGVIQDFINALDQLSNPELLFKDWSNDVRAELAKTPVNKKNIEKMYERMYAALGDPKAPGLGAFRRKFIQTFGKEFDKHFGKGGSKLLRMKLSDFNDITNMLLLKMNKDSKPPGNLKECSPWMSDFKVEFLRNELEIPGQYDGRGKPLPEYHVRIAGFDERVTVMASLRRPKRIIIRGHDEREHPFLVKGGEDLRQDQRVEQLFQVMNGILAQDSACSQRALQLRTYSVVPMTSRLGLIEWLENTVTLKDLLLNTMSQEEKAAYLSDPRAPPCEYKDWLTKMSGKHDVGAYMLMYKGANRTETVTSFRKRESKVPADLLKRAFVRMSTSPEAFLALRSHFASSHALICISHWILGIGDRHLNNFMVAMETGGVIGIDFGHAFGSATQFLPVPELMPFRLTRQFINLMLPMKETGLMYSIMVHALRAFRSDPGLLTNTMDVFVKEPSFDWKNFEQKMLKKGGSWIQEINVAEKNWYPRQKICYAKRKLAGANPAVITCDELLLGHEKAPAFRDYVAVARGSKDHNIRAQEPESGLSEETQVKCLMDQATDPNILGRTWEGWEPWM

Row | Structure (SMILES) | IC50 (mTOR) | IC50 [1] | IC50 [2]
1 | CC1c2c(nc(-c3ccc(NC(=O)NC4CC4)cc3)nc2N2CCOC[C@@H]2C)CS1(=O)=O (mixture of isomers) [Example 6, 1-cyclopropyl-3-(4-(5-methyl-4-((S)-3-methylmorpholino)-6,6-dioxido-5,7-dihydrothieno[3,4-d]pyrimidin-2-yl)phenyl)urea] | < 100 nM | < 100 nM | –
2 | C[C@H]1COCCN1c1nc(-c2ccc(NC(=O)NC3CC3)cc2)nc2c1CSCC2 [Example 3, (S)-1-cyclopropyl-3-(4-(4-(3-methylmorpholino)-7,8-dihydro-5H-thiopyrano[4,3-d]pyrimidin-2-yl)phenyl)urea] | < 100 nM | < 100 nM | –
3 | C[C@H]1COCCN1c1nc(-c2ccc(NC(=O)NC3CC3)cc2)nc2c1CS(=O)(=O)CC2 [Example 4, (S)-1-cyclopropyl-3-(4-(4-(3-methylmorpholino)-6,6-dioxido-7,8-dihydro-5H-thiopyrano[4,3-d]pyrimidin-2-yl)phenyl)urea] | < 100 nM | 100 to 1000 nM | > 10000 nM
4 | CC1c2nc(-c3ccc(NC(=O)NC4CC4)cc3)nc(N3CCOC[C@@H]3C)c2CS1(=O)=O (stereo partly drawn) [Example 7, 1-cyclopropyl-3-(4-(7-methyl-4-((S)-3-methylmorpholino)-6,6-dioxido-5,7-dihydrothieno[3,4-d]pyrimidin-2-yl)phenyl)urea] | < 100 nM | < 100 nM | –
5 | C[C@H]1COCCN1c1nc(-c2ccc(NC(=O)NC3CC3)cc2)nc2c1SCCC2 [Example 8, (S)-1-cyclopropyl-3-(4-(4-(3-methylmorpholino)-7,8-dihydro-6H-thiopyrano[3,2-d]pyrimidin-2-yl)phenyl)urea] | < 100 nM | < 100 nM | > 10000 nM
6 | CCNC(=O)Nc1ccc(-c2nc3c(c(N4CCOC[C@@H]4C)n2)CS(=O)(=O)C3)cc1 [Example 11, (S)-1-ethyl-3-(4-(4-(3-methylmorpholino)-6,6-dioxido-5,7-dihydrothieno[3,4-d]pyrimidin-2-yl)phenyl)urea] | – | < 100 nM | > 10000 nM
7 | CNC(=O)Nc1ccc(-c2nc3c(c(N4CCOC[C@@H]4C)n2)CS(=O)(=O)C3)cc1 [Example 12, (S)-1-methyl-3-(4-(4-(3-methylmorpholino)-6,6-dioxido-5,7-dihydrothieno[3,4-d]pyrimidin-2-yl)phenyl)urea] | < 100 nM | 100 to 1000 nM | > 10000 nM
8 | C[C@H]1COCCN1c1nc(-c2ccc(NC(=O)NCCO)cc2)nc2c1CS(=O)(=O)C2 [Example 13, (S)-1-(2-hydroxyethyl)-3-(4-(4-(3-methylmorpholino)-6,6-dioxido-5,7-dihydrothieno[3,4-d]pyrimidin-2-yl)phenyl)urea] | < 100 nM | 1000 to 10000 nM | 1000 to 10000 nM
9 | C[C@H]1COCCN1c1nc(-c2ccc(NC(=O)NCCF)cc2)nc2c1CS(=O)(=O)C2 [Example 14, (S)-1-(2-fluoroethyl)-3-(4-(4-(3-methylmorpholino)-6,6-dioxido-5,7-dihydrothieno[3,4-d]pyrimidin-2-yl)phenyl)urea] | < 100 nM | 100 to 1000 nM | > 3000 nM
10 | C[C@@H]1COCCN1c1nc(-c2ccc(NC(=O)NC3CC3)cc2)nc2c1CS(=O)(=O)C2 [Example 17, (R)-1-cyclopropyl-3-(4-(4-(3-methylmorpholino)-6,6-dioxido-5,7-dihydrothieno[3,4-d]pyrimidin-2-yl)phenyl)urea] | 100 to 1000 nM | < 100 nM | –
11 | C[C@@H]1CN(c2nc(-c3ccc(NC(=O)NC4CC4)cc3)nc3c2CS(=O)(=O)C3)C[C@H](C)O1 [Example 19, 1-cyclopropyl-3-(4-(4-((2S,6R)-2,6-dimethylmorpholino)-6,6-dioxido-5,7-dihydrothieno[3,4-d]pyrimidin-2-yl)phenyl)urea] | 1000 to 10000 nM | – | –
12 | O=C(Nc1ccc(-c2nc3c(c(N4CC5CCC(C4)O5)n2)CS(=O)(=O)C3)cc1)NC1CC1 [Example 20, 1-(4-(4-(8-oxa-3-azabicyclo[3.2.1]octan-3-yl)-6,6-dioxido-5,7-dihydrothieno[3,4-d]pyrimidin-2-yl)phenyl)-3-cyclopropylurea] | < 100 nM | 100 to 1000 nM | –
13 | CNC(=O)Nc1ccc(-c2nc3c(c(N4CC5CCC(C4)O5)n2)CS(=O)(=O)C3)cc1 [Example 21, 1-(4-(4-(8-oxa-3-azabicyclo[3.2.1]octan-3-yl)-6,6-dioxido-5,7-dihydrothieno[3,4-d]pyrimidin-2-yl)phenyl)-3-methylurea] | < 100 nM | 100 to 1000 nM | –
14 | C[C@H]1COCCN1c1nc(-c2ccc(NC(=O)NCC(F)F)cc2)nc2c1CS(=O)(=O)C2 [Example 23, (S)-1-(2,2-difluoroethyl)-3-(4-(4-(3-methylmorpholino)-6,6-dioxido-5,7-dihydrothieno[3,4-d]pyrimidin-2-yl)phenyl)urea] | < 100 nM | 100 to 1000 nM | –
15 | O=C(NCC(F)F)Nc1ccc(-c2nc3c(c(N4CC5CCC(C4)O5)n2)CS(=O)(=O)C3)cc1 [Example 24, 1-(4-(4-(8-oxa-3-azabicyclo[3.2.1]octan-3-yl)-6,6-dioxido-5,7-dihydrothieno[3,4-d]pyrimidin-2-yl)phenyl)-3-(2,2-difluoroethyl)urea] | 100 to 1000 nM | < 100 nM | –
16 | CC(C)NC(=O)Nc1ccc(-c2nc3c(c(N4CCOC[C@@H]4C)n2)CS(=O)(=O)C3)cc1 [Example 25, (S)-1-isopropyl-3-(4-(4-(3-methylmorpholino)-6,6-dioxido-5,7-dihydrothieno[3,4-d]pyrimidin-2-yl)phenyl)urea] | 100 to 1000 nM | 100 to 1000 nM | –
17 | C[C@H]1COCCN1c1nc(-c2ccc(NC(=O)NC3CC3)cc2)nc2c1CS(=O)(=O)C2(C)C [Example 30, (S)-1-cyclopropyl-3-(4-(7,7-dimethyl-4-(3-methylmorpholino)-6,6-dioxido-5,7-dihydrothieno[3,4-d]pyrimidin-2-yl)phenyl)urea] | < 100 nM | < 100 nM | –
18 | CC1c2c(nc(-c3ccc(NC(=O)NC4CC4)cc3)nc2N2C3CCC2COC3)CS1(=O)=O (stereo not drawn) [Example 33, 1-(4-(4-(3-oxa-8-azabicyclo[3.2.1]octan-8-yl)-5-methyl-6,6-dioxido-5,7-dihydrothieno[3,4-d]pyrimidin-2-yl)phenyl)-3-cyclopropylurea] | < 100 nM | < 100 nM | –
19 | CC1c2c(nc(-c3ccc(NC(=O)NC4CC4)cc3)nc2N2CC3CCC(C2)O3)CS1(=O)=O (stereo not drawn) [Example 34, 1-(4-(4-(8-oxa-3-azabicyclo[3.2.1]octan-3-yl)-5-methyl-6,6-dioxido-5,7-dihydrothieno[3,4-d]pyrimidin-2-yl)phenyl)-3-cyclopropylurea] | < 100 nM | < 100 nM | –
20 | C[C@H]1COCCN1c1nc(-c2ccc(NC(=O)Nc3cccnc3)cc2)nc2c1CS(=O)(=O)C2 [Example 36, (S)-1-(4-(4-(3-methylmorpholino)-6,6-dioxido-5,7-dihydrothieno[3,4-d]pyrimidin-2-yl)phenyl)-3-(pyridin-3-yl)urea] | < 100 nM | – | > 10000 nM
21 | C[C@H]1COCCN1c1nc(-c2ccc(NC(=O)NC3CC3)cc2)nc2c1S(=O)(=O)C(C)(C)C2 [Example 37, (S)-1-cyclopropyl-3-(4-(6,6-dimethyl-4-(3-methylmorpholino)-5,5-dioxido-6,7-dihydrothieno[3,2-d]pyrimidin-2-yl)phenyl)urea] | 100 to 1000 nM | – | > 10000 nM
22 | CC1c2c(N3CCOCC3)nc(-c3ccc(NC(=O)NCCF)cc3)nc2C(C)(C)S1(=O)=O (stereo not drawn) [Example 81, 1-(2-fluoroethyl)-3-(4-(5,7,7-trimethyl-4-morpholino-6,6-dioxido-5,7-dihydrothieno[3,4-d]pyrimidin-2-yl)phenyl)urea] | < 100 nM | – | –
23 | C[C@@H]1c2c(N3CCOC[C@@H]3C)nc(-c3ccc(NC(=O)NC4CC4)cc3)nc2C(C)(C)S1(=O)=O [Example 82, 1-cyclopropyl-3-(4-((R)-5,7,7-trimethyl-4-((S)-3-methylmorpholino)-6,6-dioxido-5,7-dihydrothieno[3,4-d]pyrimidin-2-yl)phenyl)urea] | < 100 nM | – | –
